Results: ChEMBL document CHEMBL3407392, “Design, syntheses, structure-activity relationships and docking studies of coumarin derivatives as novel selective ligands for the CB2 receptor” (Eur J Med Chem, 2015)

Experiments:
Cannabinoid receptor 2 [1] = molecular target: T1, Cannabinoid receptor 2 (Homo sapiens, UniProt P34972); experiment: Agonist activity at CB2 receptor (unknown origin) expressed in CHO cells by calcium mobilization assay; format: functional, cell-based
Cannabinoid receptor 1 [2] = molecular target: T2, Cannabinoid receptor 1 (Homo sapiens, UniProt P21554); experiment: Agonist activity at CB1 receptor (unknown origin) expressed in CHO cells by calcium mobilization assay; format: functional, cell-based
Homo sapiens [3] = species on record: Homo sapiens; experiment: Selectivity index, ratio of EC50 for CB1 receptor (unknown origin) to EC50 for CB2 receptor (unknown origin)
Cannabinoid receptor 2 [4] = molecular target: T1, Cannabinoid receptor 2; experiment: Binding affinity to CB2 receptor (unknown origin)
Cannabinoid receptor 1 [5] = molecular target: T2, Cannabinoid receptor 1; format: functional, cell-based, CHO
Cannabinoid receptor 2 [6] = molecular target: T1, Cannabinoid receptor 2; experiment: Antagonist activity at CB2 receptor (unknown origin) expressed in CHO cells up to 10 uM incubated for 10 mins prior to CP55940 addition by calcium mobilization assay; format: functional, cell-based
Homo sapiens [7] = species on record: Homo sapiens; experiment: Selectivity index, ratio of IC50 for CB1 receptor (unknown origin) to IC50 for CB2 receptor (unknown origin)
Cannabinoid receptor 2 [8] = molecular target: T1, Cannabinoid receptor 2; experiment: Agonist activity at CB2 receptor (unknown origin) expressed in CHO cells at 10 uM by calcium mobilization assay relative to control; format: functional, cell-based

T2 sequence (P21554 whole entry): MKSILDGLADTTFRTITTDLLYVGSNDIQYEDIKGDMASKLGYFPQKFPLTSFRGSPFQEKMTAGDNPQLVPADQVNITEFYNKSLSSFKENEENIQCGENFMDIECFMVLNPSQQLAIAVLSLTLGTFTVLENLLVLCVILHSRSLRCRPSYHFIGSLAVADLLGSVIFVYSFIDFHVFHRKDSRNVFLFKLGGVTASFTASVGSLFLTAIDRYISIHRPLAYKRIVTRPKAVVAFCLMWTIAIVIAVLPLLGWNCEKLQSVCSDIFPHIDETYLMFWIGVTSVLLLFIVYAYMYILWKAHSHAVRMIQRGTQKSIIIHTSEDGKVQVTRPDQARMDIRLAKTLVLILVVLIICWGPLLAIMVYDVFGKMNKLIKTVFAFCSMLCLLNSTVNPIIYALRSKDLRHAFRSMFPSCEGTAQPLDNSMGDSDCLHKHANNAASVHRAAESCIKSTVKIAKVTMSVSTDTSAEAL
T1 sequence (P34972 whole entry): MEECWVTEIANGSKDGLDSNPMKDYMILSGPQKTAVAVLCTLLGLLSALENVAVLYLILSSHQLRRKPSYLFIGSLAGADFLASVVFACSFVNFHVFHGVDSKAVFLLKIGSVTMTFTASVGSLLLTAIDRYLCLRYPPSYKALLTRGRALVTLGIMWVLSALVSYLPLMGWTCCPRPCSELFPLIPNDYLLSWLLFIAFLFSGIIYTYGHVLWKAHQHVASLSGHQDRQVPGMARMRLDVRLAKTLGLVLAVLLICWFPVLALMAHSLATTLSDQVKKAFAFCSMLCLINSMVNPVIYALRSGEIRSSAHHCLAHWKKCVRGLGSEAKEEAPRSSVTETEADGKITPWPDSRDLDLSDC

CCCCOc1cccc2cc(C(=O)NC(C)C)c(=O)oc12
EC50 (Cannabinoid receptor 2 [1]): 103 nM | EC50 (Cannabinoid receptor 1 [2]): > 10000 nM | Ratio EC50 (Homo sapiens [3]): > 97.1

CCCCCOc1cc(C(=O)NCCc2ccncc2)ccc1OC
Ki (Cannabinoid receptor 2 [4]): 73 nM

CCCCCCOc1cc(Br)cc2cc(C(=O)NC3CCCCC3)c(=O)oc12
IC50 (Cannabinoid receptor 1 [5]): > 10000 nM | IC50 (Cannabinoid receptor 2 [6]): > 10000 nM

CCCCCSc1cc(/C=C/C(=O)NCCc2ccc(O)cc2)ccc1OC
Ki (Cannabinoid receptor 2 [4]): 1.1 nM

CCCCCOc1cc(C(=O)NC2CCc3cc(O)c(O)cc3C2)ccc1OC (stereo not drawn)
Ki (Cannabinoid receptor 2 [4]): 18 nM

CCCCCOc1c(OC)ccc2c1CCN(CCc1ccc(O)cc1)C2=O
Ki (Cannabinoid receptor 2 [4]): 1.8 nM

CCCCOc1cc(Br)cc2cc(C(=O)NC3CC3)c(=O)oc12
IC50 (Cannabinoid receptor 1 [5]): > 10000 nM | IC50 (Cannabinoid receptor 2 [6]): > 10000 nM

CCCCOc1cccc2cc(C(=O)NC(C)(C)C)c(=O)oc12
EC50 (Cannabinoid receptor 2 [1]): 972 nM | EC50 (Cannabinoid receptor 1 [2]): > 10000 nM | Ratio EC50 (Homo sapiens [3]): > 10.3

CCCCCOc1c(OC)ccc2c1C(=O)N(CCc1ccc(O)cc1)C2=O
Ki (Cannabinoid receptor 2 [4]): 7.3 nM

CCCCOc1cccc2cc(C(=O)N3CCCCC3)c(=O)oc12
EC50 (Cannabinoid receptor 2 [1]): > 10000 nM | EC50 (Cannabinoid receptor 1 [2]): > 10000 nM

CCCCCOc1c(OC)ccc2c1CN(CCc1ccc(O)cc1)C2=O
Ki (Cannabinoid receptor 2 [4]): 11 nM

CCCCCNc1c(OC)ccc2c1CN(CCc1ccc(O)cc1)C2=O
Ki (Cannabinoid receptor 2 [4]): 0.088 nM

CCCCCOc1cc(/C=C/C(=O)NCCc2ccc(O)cc2)ccc1OC
Ki (Cannabinoid receptor 2 [4]): 4.8 nM

CCCCCOc1cc(Br)cc2cc(C(=O)NC3CCCCC3)c(=O)oc12
IC50 (Cannabinoid receptor 1 [5]): > 10000 nM | Ratio IC50 (Homo sapiens [7]): 4.6 | IC50 (Cannabinoid receptor 2 [6]): 2190 nM

CCOc1cccc2cc(C(=O)NC3CCCCC3)c(=O)oc12
EC50 (Cannabinoid receptor 2 [1]): > 10000 nM | EC50 (Cannabinoid receptor 1 [2]): > 10000 nM

CCCCCOc1ccc(C(=O)NCCc2ccc(O)cc2)cc1OCCCCC
Ki (Cannabinoid receptor 2 [4]): 0.44 nM

CCCCCOc1c(OC)ccc2cc(C(=O)N3CCCC(C(=O)OCC)C3)c(=O)[nH]c12 (stereo not drawn)
Ki (Cannabinoid receptor 2 [4]): 100 nM

O=C(NC1CCCCC1)c1cc2cc(Br)cc(OCC3CC3)c2oc1=O
IC50 (Cannabinoid receptor 1 [5]): > 10000 nM | Ratio IC50 (Homo sapiens [7]): > 13.4 | IC50 (Cannabinoid receptor 2 [6]): 746 nM

CCCCCOc1c(OC)ccc2c(=O)n(CCc3ccc(O)cc3)ccc12
Ki (Cannabinoid receptor 2 [4]): 3.7 nM

CCCCOc1cc(Br)cc2cc(C(=O)NC(C)C)c(=O)oc12
IC50 (Cannabinoid receptor 1 [5]): > 10000 nM | IC50 (Cannabinoid receptor 2 [6]): > 10000 nM

CCCCOc1c(OC)ccc2cc(C(=O)NC(C)C(C)C)c(=O)oc12 (stereo not drawn)
IC50 (Cannabinoid receptor 1 [5]): > 10000 nM | Ratio IC50 (Homo sapiens [7]): > 357 | IC50 (Cannabinoid receptor 2 [6]): 28 nM

CCCCOc1cccc2cc(C(=O)NC3CC3)c(=O)oc12
EC50 (Cannabinoid receptor 1 [2]): > 10000 nM | Activity (Cannabinoid receptor 2 [8]): 34%

CCCCOc1c(OC)ccc2cc(C(=O)NC3CCCCC3)c(=O)oc12
IC50 (Cannabinoid receptor 1 [5]): > 10000 nM | Ratio IC50 (Homo sapiens [7]): > 454 | IC50 (Cannabinoid receptor 2 [6]): 22 nM

CCCOc1cc(Br)cc2cc(C(=O)NC3CCCCC3)c(=O)oc12
IC50 (Cannabinoid receptor 1 [5]): > 10000 nM | IC50 (Cannabinoid receptor 2 [6]): > 10000 nM

CCCCCOc1ccc2c(c1OCCCCC)CN(CCc1ccc(N)cc1)C2=O
Ki (Cannabinoid receptor 2 [4]): 0.11 nM

CCCCCOc1c(OC)ccc2c1CN(CCc1ccc(N)cc1)C2=O
Ki (Cannabinoid receptor 2 [4]): 14 nM

O=C(NCC1CCOCC1)c1cnc(Nc2ccc(Cl)cc2Cl)nc1C(F)(F)F [GW842166X]
EC50 (Cannabinoid receptor 2 [1]): 431 nM | EC50 (Cannabinoid receptor 1 [2]): > 10000 nM | Ratio EC50 (Homo sapiens [3]): > 23.2

CCCCCOc1cc(/C=C/C(=O)NCCc2ccncc2)ccc1OC
Ki (Cannabinoid receptor 2 [4]): 44 nM

CCCCCOc1cc(C(=O)NCCc2ccc(O)cc2)ccc1OC
Ki (Cannabinoid receptor 2 [4]): 2.5 nM

CCCCCOc1c(OC)ccc2cc(C(=O)N3CCCc4ccccc4C3)c(=O)[nH]c12
Ki (Cannabinoid receptor 2 [4]): 118 nM

CCCCOc1cccc2cc(C(=O)NC3CCCCC3)c(=O)oc12
EC50 (Cannabinoid receptor 2 [1]): 144 nM | EC50 (Cannabinoid receptor 1 [2]): > 10000 nM | Ratio EC50 (Homo sapiens [3]): > 69.4

CCCCCOc1cccc2cc(C(=O)NC3CCCCC3)c(=O)oc12
EC50 (Cannabinoid receptor 2 [1]): 245 nM | EC50 (Cannabinoid receptor 1 [2]): > 10000 nM | Ratio EC50 (Homo sapiens [3]): > 40.8

CCCCOc1c(OC)ccc2cc(C(=O)NCC3CC3)c(=O)oc12
IC50 (Cannabinoid receptor 1 [5]): > 10000 nM | Ratio IC50 (Homo sapiens [7]): > 8.5 | IC50 (Cannabinoid receptor 2 [6]): 1180 nM

CCCCOc1c(OC)ccc2cc(C(=O)NC(CC)CC)c(=O)oc12
IC50 (Cannabinoid receptor 1 [5]): > 10000 nM | Ratio IC50 (Homo sapiens [7]): > 500 | IC50 (Cannabinoid receptor 2 [6]): 20 nM

CCCCNC(=O)c1cc2cccc(OCCCC)c2oc1=O
EC50 (Cannabinoid receptor 2 [1]): > 10000 nM | EC50 (Cannabinoid receptor 1 [2]): > 10000 nM

CCCCOc1cccc2cc(C(=O)NN3CCCCC3)c(=O)oc12
EC50 (Cannabinoid receptor 1 [2]): > 10000 nM | Activity (Cannabinoid receptor 2 [8]): 37%

O=C(NC1CCCCC1)c1cc2cccc(OCc3ccccc3)c2oc1=O
EC50 (Cannabinoid receptor 1 [2]): > 10000 nM | Activity (Cannabinoid receptor 2 [8]): 33%

CCCOc1c(OC)ccc2cc(C(=O)NC3CCCCC3)c(=O)oc12
IC50 (Cannabinoid receptor 1 [5]): > 10000 nM | Ratio IC50 (Homo sapiens [7]): > 12.4 | IC50 (Cannabinoid receptor 2 [6]): 807 nM

CCCCOc1cccc2cc(C(=O)NC(C)CCC)c(=O)oc12 (stereo not drawn)
EC50 (Cannabinoid receptor 2 [1]): 321 nM | EC50 (Cannabinoid receptor 1 [2]): > 10000 nM | Ratio EC50 (Homo sapiens [3]): > 31.2

CCCCOc1cc(Br)cc2cc(C(=O)NC3CCCCC3)c(=O)oc12
IC50 (Cannabinoid receptor 1 [5]): > 10000 nM | Ratio IC50 (Homo sapiens [7]): > 111 | IC50 (Cannabinoid receptor 2 [6]): 90 nM

CCCCCOc1c(OC)ccc2c(=O)n(CCc3ccncc3)ccc12
Ki (Cannabinoid receptor 2 [4]): 8.4 nM

CCCCCCOc1cccc2cc(C(=O)NC3CCCCC3)c(=O)oc12
EC50 (Cannabinoid receptor 1 [2]): > 10000 nM | Activity (Cannabinoid receptor 2 [8]): 36%

CCCCOc1cccc2cc(C(=O)NCC3CC3)c(=O)oc12
EC50 (Cannabinoid receptor 2 [1]): > 10000 nM | EC50 (Cannabinoid receptor 1 [2]): > 10000 nM

CCCCOc1cccc2cc(C(=O)NN3CCOCC3)c(=O)oc12
EC50 (Cannabinoid receptor 2 [1]): > 10000 nM | EC50 (Cannabinoid receptor 1 [2]): > 10000 nM

CCCCOc1c(OC)ccc2cc(C(=O)NCCc3ccccc3)c(=O)[nH]c12
Ki (Cannabinoid receptor 2 [4]): 0.33 nM

CCCCOc1cccc2cc(C(=O)NC(CC)CC)c(=O)oc12
EC50 (Cannabinoid receptor 2 [1]): 130 nM | EC50 (Cannabinoid receptor 1 [2]): > 10000 nM | Ratio EC50 (Homo sapiens [3]): > 76.9

CCCCOc1cccc2cc(C(=O)NC(C)C(C)C)c(=O)oc12 (stereo not drawn)
EC50 (Cannabinoid receptor 1 [2]): > 10000 nM | Activity (Cannabinoid receptor 2 [8]): 41%

CCCCCOc1c(OC)ccc2cc(C(=O)NCc3ccc4c(c3)OCO4)c(=O)oc12
Ki (Cannabinoid receptor 2 [4]): 0.087 nM | IC50 (Cannabinoid receptor 1 [5]): > 10000 nM | Ratio IC50 (Homo sapiens [7]): > 15.5 | IC50 (Cannabinoid receptor 2 [6]): 644 nM

CCCCOc1cccc2cc(C(=O)NC34CC5CC(CC(C5)C3)C4)c(=O)oc12
EC50 (Cannabinoid receptor 2 [1]): > 10000 nM | EC50 (Cannabinoid receptor 1 [2]): > 10000 nM

CCCCOc1cc(Br)cc2cc(C(=O)NN3CCOCC3)c(=O)oc12
IC50 (Cannabinoid receptor 1 [5]): > 10000 nM | IC50 (Cannabinoid receptor 2 [6]): > 10000 nM

CCCCOc1cccc2cc(C(=O)NC3CCCC3)c(=O)oc12
EC50 (Cannabinoid receptor 2 [1]): 793 nM | EC50 (Cannabinoid receptor 1 [2]): > 10000 nM | Ratio EC50 (Homo sapiens [3]): > 12.6

CCCCOc1c(OC)ccc2cc(C(=O)NC(C)C)c(=O)oc12
IC50 (Cannabinoid receptor 1 [5]): > 10000 nM | Ratio IC50 (Homo sapiens [7]): > 61.7 | IC50 (Cannabinoid receptor 2 [6]): 162 nM

CCCCOc1c(OC)ccc2cc(C(=O)NC(C)CCC)c(=O)oc12 (stereo not drawn)
IC50 (Cannabinoid receptor 1 [5]): > 10000 nM | Ratio IC50 (Homo sapiens [7]): > 526 | IC50 (Cannabinoid receptor 2 [6]): 19 nM

CCCCCOc1ccc(C(=O)NCCc2ccc(N)cc2)cc1SCCCCC
Ki (Cannabinoid receptor 2 [4]): 1.9 nM

CCCCOc1cccc2cc(C(=O)NCc3ccccc3)c(=O)oc12
EC50 (Cannabinoid receptor 2 [1]): > 10000 nM | EC50 (Cannabinoid receptor 1 [2]): > 10000 nM

CCCCCOc1c(OC)ccc2cc(C(=O)NC3CCCCC3)c(=O)oc12
IC50 (Cannabinoid receptor 1 [5]): > 10000 nM | Ratio IC50 (Homo sapiens [7]): > 164 | IC50 (Cannabinoid receptor 2 [6]): 61 nM

CCCOc1cccc2cc(C(=O)NC3CCCCC3)c(=O)oc12
EC50 (Cannabinoid receptor 2 [1]): > 10000 nM | EC50 (Cannabinoid receptor 1 [2]): > 10000 nM

O=C(NC1CCCCC1)c1cc2cccc(OCC3CC3)c2oc1=O
EC50 (Cannabinoid receptor 1 [2]): > 10000 nM | Activity (Cannabinoid receptor 2 [8]): 42%
